Source: patent US20120245137A1 (Zalicus Pharmaceuticals Ltd., priority 2009, published 2012)

What was measured:
Type in all cases: cell-based
[1] = target: human α1G T-type channels (Homo sapiens, UniProt O43497); assay: T-type calcium channel block, whole cell patch clamp, α1G; conditions: HEK cells stably expressing human α1G; mainly non-inactivated protocol; values above 10,000 nM represented as 10000
How it was run: (§1)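 Using standard patch-clamp, T-type currents were recorded from stably transfected human α1G or α1H HEK 293 cells. Separate non-inactivating and inactivation voltage protocols distinguished resting from voltage-dependent block by locally applied compound in 0.1-0.01% DMSO.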

[2] = target: human α1H T-type channels (Homo sapiens, UniProt O95180); assay: T-type calcium channel block, whole cell patch clamp, α1H; conditions: HEK cells stably expressing human α1H; mainly non-inactivated protocol; values above 10,000 nM represented as 10000
How it was run: as §1

[3] = target: N-type calcium channel subunits (α1B, α2δ, and β3a) (Homo sapiens, UniProt Q00975); assay: Block of Cav2.2 channel, whole cell voltage clamp, manual and PatchXpress; conditions: Table 5; table follows Assay Example 3 (whole cell voltage clamp / PatchXpress); assay not given
How it was run: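 Percent block taken as current amplitude ratio with versus without compound, applied in rising doses; IC50 fitted where one cell received multiple doses. Protocol: 50 ms pulses to +20 mV at 0.067 Hz from […] or −90 mV holding; P/n leak subtraction, no junction-potential correction; manual and PatchXpress recordings.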

Sequence of N-type calcium channel subunits (α1B, α2δ, and β3a) (Q00975 whole entry): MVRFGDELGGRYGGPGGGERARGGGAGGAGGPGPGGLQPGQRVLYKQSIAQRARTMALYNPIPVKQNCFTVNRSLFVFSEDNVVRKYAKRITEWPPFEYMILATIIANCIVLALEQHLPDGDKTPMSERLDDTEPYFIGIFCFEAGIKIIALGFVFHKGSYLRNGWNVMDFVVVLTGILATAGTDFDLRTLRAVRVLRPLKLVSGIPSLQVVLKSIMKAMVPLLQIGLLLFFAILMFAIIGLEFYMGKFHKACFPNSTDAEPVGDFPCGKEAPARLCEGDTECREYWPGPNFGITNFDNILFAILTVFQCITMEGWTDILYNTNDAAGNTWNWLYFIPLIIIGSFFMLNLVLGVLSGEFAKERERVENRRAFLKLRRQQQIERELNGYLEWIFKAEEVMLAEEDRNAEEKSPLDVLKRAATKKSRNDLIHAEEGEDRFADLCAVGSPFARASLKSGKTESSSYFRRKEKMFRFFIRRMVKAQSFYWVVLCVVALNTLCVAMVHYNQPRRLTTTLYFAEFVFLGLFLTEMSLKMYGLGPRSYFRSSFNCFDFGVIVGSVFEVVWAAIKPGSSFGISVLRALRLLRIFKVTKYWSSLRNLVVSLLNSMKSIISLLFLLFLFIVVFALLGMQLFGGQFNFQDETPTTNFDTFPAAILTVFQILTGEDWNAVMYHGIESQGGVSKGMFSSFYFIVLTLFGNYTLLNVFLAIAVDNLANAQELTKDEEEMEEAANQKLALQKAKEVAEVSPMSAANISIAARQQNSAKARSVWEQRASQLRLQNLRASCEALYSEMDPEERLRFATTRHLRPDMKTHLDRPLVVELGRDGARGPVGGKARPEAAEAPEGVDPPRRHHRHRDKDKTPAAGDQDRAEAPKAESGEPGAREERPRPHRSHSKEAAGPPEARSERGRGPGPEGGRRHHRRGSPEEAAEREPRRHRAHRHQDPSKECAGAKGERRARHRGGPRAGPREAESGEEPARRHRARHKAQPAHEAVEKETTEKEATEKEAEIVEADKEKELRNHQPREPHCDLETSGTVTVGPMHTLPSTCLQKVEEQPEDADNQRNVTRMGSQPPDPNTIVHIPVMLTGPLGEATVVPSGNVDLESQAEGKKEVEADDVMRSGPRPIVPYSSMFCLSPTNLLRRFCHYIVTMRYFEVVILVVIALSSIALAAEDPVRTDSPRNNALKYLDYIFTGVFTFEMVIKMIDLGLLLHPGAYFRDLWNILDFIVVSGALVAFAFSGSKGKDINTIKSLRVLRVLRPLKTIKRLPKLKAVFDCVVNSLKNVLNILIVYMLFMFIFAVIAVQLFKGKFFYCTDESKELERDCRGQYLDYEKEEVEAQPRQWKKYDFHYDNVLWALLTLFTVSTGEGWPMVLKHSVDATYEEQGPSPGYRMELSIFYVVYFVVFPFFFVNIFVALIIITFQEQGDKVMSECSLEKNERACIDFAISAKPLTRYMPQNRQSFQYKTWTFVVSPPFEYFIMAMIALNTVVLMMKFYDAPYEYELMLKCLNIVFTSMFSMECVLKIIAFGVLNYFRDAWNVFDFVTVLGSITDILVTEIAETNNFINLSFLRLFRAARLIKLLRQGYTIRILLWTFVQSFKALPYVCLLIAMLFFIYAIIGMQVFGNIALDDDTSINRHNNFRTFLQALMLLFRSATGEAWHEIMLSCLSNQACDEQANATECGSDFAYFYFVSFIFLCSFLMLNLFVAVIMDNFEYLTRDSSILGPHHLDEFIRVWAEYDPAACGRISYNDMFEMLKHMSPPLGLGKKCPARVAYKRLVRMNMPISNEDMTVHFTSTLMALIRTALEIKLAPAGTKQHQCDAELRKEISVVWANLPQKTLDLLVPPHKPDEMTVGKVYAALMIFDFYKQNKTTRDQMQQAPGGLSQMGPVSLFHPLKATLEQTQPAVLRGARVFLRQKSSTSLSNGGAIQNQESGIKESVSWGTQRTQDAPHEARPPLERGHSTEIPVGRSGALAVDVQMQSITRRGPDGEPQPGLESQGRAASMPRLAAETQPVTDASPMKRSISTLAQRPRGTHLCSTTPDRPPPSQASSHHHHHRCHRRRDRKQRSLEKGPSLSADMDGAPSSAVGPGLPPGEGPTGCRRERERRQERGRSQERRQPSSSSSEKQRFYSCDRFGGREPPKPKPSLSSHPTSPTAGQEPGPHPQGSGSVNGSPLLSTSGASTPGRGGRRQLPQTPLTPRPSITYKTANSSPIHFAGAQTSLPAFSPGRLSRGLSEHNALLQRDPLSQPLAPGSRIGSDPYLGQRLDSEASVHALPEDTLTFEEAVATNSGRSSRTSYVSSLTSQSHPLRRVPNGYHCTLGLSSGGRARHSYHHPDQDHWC
Sequence of N-type calcium channel subunits (α1B, α2δ, and β3a) (P54289 25-1103 partner): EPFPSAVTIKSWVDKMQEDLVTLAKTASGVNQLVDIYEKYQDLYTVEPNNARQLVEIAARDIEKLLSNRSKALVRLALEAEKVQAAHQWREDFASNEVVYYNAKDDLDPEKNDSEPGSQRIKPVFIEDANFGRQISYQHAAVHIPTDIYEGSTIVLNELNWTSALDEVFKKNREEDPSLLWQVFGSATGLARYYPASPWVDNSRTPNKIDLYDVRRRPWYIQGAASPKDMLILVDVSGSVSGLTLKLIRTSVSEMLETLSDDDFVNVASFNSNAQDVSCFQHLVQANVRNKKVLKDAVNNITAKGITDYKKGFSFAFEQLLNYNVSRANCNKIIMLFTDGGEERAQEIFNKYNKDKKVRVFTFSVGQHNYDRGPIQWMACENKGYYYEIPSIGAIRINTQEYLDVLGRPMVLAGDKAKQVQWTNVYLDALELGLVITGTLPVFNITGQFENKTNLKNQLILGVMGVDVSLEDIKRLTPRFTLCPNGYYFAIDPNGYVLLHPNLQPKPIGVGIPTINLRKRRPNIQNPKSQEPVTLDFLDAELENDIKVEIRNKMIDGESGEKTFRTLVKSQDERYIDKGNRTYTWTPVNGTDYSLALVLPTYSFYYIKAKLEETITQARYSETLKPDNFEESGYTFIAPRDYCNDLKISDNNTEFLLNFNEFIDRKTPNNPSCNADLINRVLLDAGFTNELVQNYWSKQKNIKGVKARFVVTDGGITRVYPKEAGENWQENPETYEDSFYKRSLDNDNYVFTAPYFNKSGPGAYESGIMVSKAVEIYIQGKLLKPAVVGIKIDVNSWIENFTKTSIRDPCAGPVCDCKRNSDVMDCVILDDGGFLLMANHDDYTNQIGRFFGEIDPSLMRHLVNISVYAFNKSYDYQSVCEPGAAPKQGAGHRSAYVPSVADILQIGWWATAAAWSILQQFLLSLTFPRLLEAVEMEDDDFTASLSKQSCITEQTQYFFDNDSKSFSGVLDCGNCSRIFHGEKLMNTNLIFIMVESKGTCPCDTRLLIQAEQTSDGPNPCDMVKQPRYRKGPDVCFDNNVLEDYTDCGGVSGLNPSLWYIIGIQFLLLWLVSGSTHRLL
Sequence of N-type calcium channel subunits (α1B, α2δ, and β3a) (P54284 whole entry partner): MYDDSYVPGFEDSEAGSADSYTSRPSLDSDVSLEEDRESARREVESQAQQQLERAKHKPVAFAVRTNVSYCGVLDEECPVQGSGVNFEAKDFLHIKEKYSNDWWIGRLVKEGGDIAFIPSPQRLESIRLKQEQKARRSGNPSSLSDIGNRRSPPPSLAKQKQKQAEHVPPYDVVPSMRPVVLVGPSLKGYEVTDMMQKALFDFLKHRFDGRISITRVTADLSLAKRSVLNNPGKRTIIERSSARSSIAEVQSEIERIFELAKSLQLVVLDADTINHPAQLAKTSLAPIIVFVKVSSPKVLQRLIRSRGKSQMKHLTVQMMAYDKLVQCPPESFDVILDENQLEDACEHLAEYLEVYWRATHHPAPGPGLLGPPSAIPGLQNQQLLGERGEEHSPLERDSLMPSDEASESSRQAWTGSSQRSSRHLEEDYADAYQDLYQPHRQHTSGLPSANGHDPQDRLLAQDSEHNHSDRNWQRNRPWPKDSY

| Compound | IC50 [1] | IC50 [2] | IC50 [3] |
| --- | --- | --- | --- |
| O=C(CNC[C@H]1CC[C@@H](S(=O)(=O)c2cccc(C(F)(F)F)c2)CC1)NC1CCCCC1 [Compound 36, N-cyclohexyl-2-(((1S,4S)-4-(3-(trifluoromethyl)phenylsulfonyl)cyclohexyl)methylamino)acetamide] | 5250 nM | 5110 nM | 740 nM |
| CC1(NC(=O)c2ccc(C(F)(F)F)cc2S(C)(=O)=O)CCC(S(=O)(=O)c2cccc(C(F)(F)F)c2)CC1 (stereo not drawn) [Compound 311, N-(1-methyl-4-(3-(trifluoromethyl)phenylsulfonyl)cyclohexyl)-2-(methylsulfonyl)-4-(trifluoromethyl)benzamide] | 5080 nM | 8500 nM | 650 nM |
| O=C(N[C@H]1CC[C@@](F)(S(=O)(=O)c2cccc(C(F)(F)F)c2)CC1)c1cn2cc(C(F)(F)F)ccc2n1 [Compound 264, N-((1S,4S)-4-fluoro-4-(3-(trifluoromethyl)phenylsulfonyl)cyclohexyl)-6-(trifluoromethyl)imidazo[1,2-a]pyridine-2-carboxamide] | 4480 nM | > 10000 nM | 470 nM |
| O=C(NC[C@H]1C[C@H](S(=O)(=O)c2cccc(C(F)(F)F)c2)C1)c1ccc(F)c(C(F)(F)F)c1 [Compound 354, 4-fluoro-3-(trifluoromethyl)-N-(((1R,3R)-3-(3-(trifluoromethyl)phenylsulfonyl)cyclobutyl)methyl)benzamide] | > 10000 nM | 7060 nM | 140 nM |
| COc1ccc(C(C)(C)NC(=O)[C@H]2C[C@H](S(=O)(=O)c3cccc(C(F)(F)F)c3)C2)cc1 [Compound 403, (1R,3R)-N-(2-(4-methoxyphenyl)propan-2-yl)-3-(3-(trifluoromethyl)phenylsulfonyl)cyclobutane carboxamide] | 1190 nM | 1040 nM | 1460 nM |
| O=C(N[C@H]1CC[C@@](F)(S(=O)(=O)c2cccc(C(F)(F)F)c2)CC1)c1cc(F)cc(Cl)c1 [Compound 86, 3-chloro-5-fluoro-N-((1S,4S)-4-fluoro-4-(3-(trifluoromethyl)phenylsulfonyl)cyclohexyl)benzamide] | > 10000 nM | 1930 nM | 190 nM |
| O=C(CN[C@H]1CC[C@H](CS(=O)(=O)c2cccc(C(F)(F)F)c2)CC1)NCC(F)(F)F [Compound 113, N-(2,2,2-trifluoroethyl)-2-((1R,4R)-4-((3-(trifluoromethyl)phenylsulfonyl)methyl)cyclohexylamino)acetamide] | > 10000 nM | 5350 nM | 130 nM |
| COc1cc(C(=O)NCC2(C)CCC(S(=O)(=O)c3cccc(C(F)(F)F)c3)CC2)cc(Cl)n1 (stereo not drawn) [Compound 210, 2-chloro-6-methoxy-N-((1-methyl-4-(3-(trifluoromethyl)phenylsulfonyl)cyclohexyl)methyl)isonicotinamide] | 4950 nM | 4140 nM | 380 nM |
| O=C(CNC1CCC(F)(F)CC1)N[C@H]1CC[C@H](CS(=O)(=O)c2cccc(C(F)(F)F)c2)CC1 [Compound 165, 2-(4,4-difluorocyclohexylamino)-N-((1R,4R)-4-((3-(trifluoromethyl)phenylsulfonyl)methyl)cyclohexyl)acetamide] | 4370 nM | 1390 nM | 540 nM |
| O=C(N[C@H]1CC[C@@H](CS(=O)(=O)c2cccc(C(F)(F)F)c2)CC1)c1ccc(C(F)(F)F)cn1 [Compound 143, 5-(trifluoromethyl)-N-((1S,4S)-4-((3-(trifluoromethyl)phenylsulfonyl)methyl)cyclohexyl)picolinamide] | > 10000 nM | 6750 nM | 950 nM |
| CS(=O)(=O)c1cc(C(=O)N[C@H]2CC[C@@](F)(S(=O)(=O)c3cccc(C(F)(F)F)c3)CC2)cc(C(F)(F)F)n1 [Compound 273, N-((1R,4R)-4-fluoro-4-(3-(trifluoromethyl)phenylsulfonyl)cyclohexyl)-2-(methylsulfonyl)-6-(trifluoromethyl)isonicotinamide] | > 10000 nM | > 10000 nM | 430 nM |
| 3-chloro-5-fluoro-N-(1- methyl-4-(3-(trifluoromethyl) phenylsulfonyl)cyclohexyl) benzamide [Compound 318] | 2430 nM | 1330 nM | 620 nM |
| CC1(NC(=O)c2ccc(C(F)(F)F)nc2S(C)(=O)=O)CCC(S(=O)(=O)c2cccc(C(F)(F)F)c2)CC1 (stereo not drawn) [Compound 316, N-(1-methyl-4-(3-(trifluoromethyl)phenylsulfonyl)cyclohexyl)-2-(methylsulfonyl)-6-(trifluoromethyl)nicotinamide] | 3990 nM | 2910 nM | 3120 nM |
| O=C(Nc1cccc(C(F)(F)F)n1)[C@H]1C[C@H](S(=O)(=O)c2cccc(C(F)(F)F)c2)C1 [Compound 411, (1R,3R)-3-(3-(trifluoromethyl)phenylsulfonyl)-N-(6-(trifluoromethyl)pyridin-2-yl)cyclobutanecarboxamide] | > 10000 nM | 2430 nM | 1020 nM |
| O=C(N[C@H]1CC[C@@H](CS(=O)(=O)c2cccc(C(F)(F)F)c2)CC1)c1ccc(F)c(Cl)c1 [Compound 142, 3-chloro-4-fluoro-N-((1S,4S)-4-((3-(trifluoromethyl)phenylsulfonyl)methyl)cyclohexyl)benzamide] | 8230 nM | 5880 nM | 380 nM |

Other lines, results leading:

| IC50 [1] | IC50 [2] | IC50 [3] | Compound |
| --- | --- | --- | --- |
| 2650 nM | 1510 nM | 1290 nM | CS(=O)(=O)c1cc(C(F)(F)F)cnc1C(=O)N[C@H]1CC[C@@](F)(S(=O)(=O)c2cc(F)cc(C(F)(F)F)c2)CC1 [Compound 331, N-((1S,4S)-4-fluoro-4-(3-fluoro-5-(trifluoromethyl)phenylsulfonyl)cyclohexyl)-3-(methylsulfonyl)-5-(trifluoromethyl)picolinamide] |
| 2650 nM | 3620 nM | 1690 nM | O=C(Nc1cc(C(F)(F)F)ccn1)[C@H]1C[C@H](S(=O)(=O)c2cccc(C(F)(F)F)c2)C1 [Compound 409, (1R,3R)-3-(3-(trifluoromethyl)phenylsulfonyl)-N-(4-(trifluoromethyl)pyridin-2-yl)cyclobutanecarboxamide] |
| 3670 nM | 5560 nM | 2440 nM | O=C(N[C@H]1CC[C@@](F)(S(=O)(=O)c2cccc(C(F)(F)F)c2)CC1)c1cc2cnccc2nc1C(F)(F)F [Compound 266, N-((1S,4S)-4-fluoro-4-(3-(trifluoromethyl)phenylsulfonyl)cyclohexyl)-2-(trifluoromethyl)-1,6-naphthyridine-3-carbosamide] |
| 3180 nM | 1220 nM | 1060 nM | O=C(N[C@H]1CC[C@@](F)(S(=O)(=O)c2cc(F)cc(C(F)(F)F)c2)CC1)c1cc(C(F)(F)F)n[nH]1 [Compound 324, N-((1S,4S)-4-fluoro-4-(3-fluoro-5-(trifluoromethyl)phenylsulfonyl)cyclohexyl)-3-(trifluoromethyl)-1H-pyrazole-5-carboxamide] |
| 1710 nM | 990 nM | 120 nM | CC1(NC(=O)CN[C@H]2CC[C@@](F)(S(=O)(=O)c3cccc(C(F)(F)F)c3)CC2)CCC1 [Compound 89, 2-((1S,4S)-4-fluoro-4-(3-(trifluoromethyl)phenylsulfonyl)cyclohexylamino)-N-(1-methylcyclobutyl)acetamide] |
| 2790 nM | 1630 nM | 1130 nM | Cn1nc(C(F)(F)F)cc1C(=O)NC[C@H]1C[C@@H](S(=O)(=O)c2cccc(C(F)(F)F)c2)C1 [Compound 378, 1-methyl-3-(trifluoromethyl)-N-(((1S,3S)-3-(3-(trifluoromethyl)phenylsulfonyl)cyclobutyl)methyl)-1H-pyrazole-5-carboxamide] |
| 820 nM | 610 nM | 250 nM | O=C(NC[C@H]1C[C@H](S(=O)(=O)c2cccc(C(F)(F)F)c2)C1)c1ccc(OC(F)(F)F)cc1 [Compound 373, 4-(trifluoromethoxy)-N-(((1R,3R)-3-(3-(trifluoromethyl)phenylsulfonyl)cyclobutyl)methyl)benzamide] |
| 1710 nM | 760 nM | 720 nM | CC(C)S(=O)(=O)c1cc(C(F)(F)F)cnc1C(=O)N[C@H]1CC[C@@H](CS(=O)(=O)c2cccc(C(F)(F)F)c2)CC1 [Compound 342, 3-(isopropylsulfonyl)-5-(trifluoromethyl)-N-((1S,4S)-4-((3-(trifluoromethyl)phenylsulfonyl)methyl)cyclohexyl)picolinamide] |
| 2960 nM | 1940 nM | 1020 nM | CC1(NC(=O)c2ccc(C(F)(F)F)cn2)CCC(S(=O)(=O)c2cccc(C(F)(F)F)c2)CC1 (stereo not drawn) [Compound 312, N-(1-methyl-4-(3-(trifluoromethyl)phenylsulfonyl)cyclohexyl)-5-(trifluoromethyl)picolinamide] |
| 880 nM | 240 nM | 850 nM | Cc1noc(C)c1S(=O)(=O)N[C@H]1CC[C@@](F)(S(=O)(=O)c2cccc(C(F)(F)F)c2)CC1 [Compound 298, N-((1S,4S)-4-fluoro-4-(3-(trifluoromethyl)phenylsulfonyl)cyclohexyl)-3,5-dimethylisoxazole-4-sulfonamide] |
| 1150 nM | 5540 nM | 360 nM | O=C(NC[C@H]1CC[C@@H](S(=O)(=O)c2cccc(C(F)(F)F)c2)CC1)c1ccc(F)c(C(F)(F)F)c1 [Compound 31, 4-fluoro-3-(trifluoromethyl)-N-(((1S,4S)-4-(3-(trifluoromethyl)phenylsulfonyl)cyclohexyl)methyl)benzamide] |
